The source of these data is publication PMC3754837 (Neuropharmacology, 2013).

Structures are written as SMILES.

For assay [1], the target named is T1, m5-HT2C (C57Bl/6 mouse 5-HT2C-VNV receptor) (Mus musculus, UniProt P34968, I157V/I161V).
T1 sequence (P34968 33-459 I157V/I161V): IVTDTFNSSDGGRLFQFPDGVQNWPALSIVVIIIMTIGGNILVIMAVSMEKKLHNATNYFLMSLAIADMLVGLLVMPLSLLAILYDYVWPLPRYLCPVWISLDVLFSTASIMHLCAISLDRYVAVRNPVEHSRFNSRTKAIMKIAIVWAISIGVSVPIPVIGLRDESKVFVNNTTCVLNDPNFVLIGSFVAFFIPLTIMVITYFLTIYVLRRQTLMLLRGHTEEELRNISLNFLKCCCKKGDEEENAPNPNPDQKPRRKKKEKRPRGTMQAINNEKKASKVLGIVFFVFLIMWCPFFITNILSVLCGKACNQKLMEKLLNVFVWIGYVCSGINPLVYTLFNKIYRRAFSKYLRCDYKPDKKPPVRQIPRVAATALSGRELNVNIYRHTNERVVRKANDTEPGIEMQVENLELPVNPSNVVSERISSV
Description: saturation radioligand binding, HEK-293 membranes.

Assay [2] addresses T1, m5-HT2C (C57Bl/6 mouse 5-HT2C-VNV receptor). Description: [3H]-inositol phosphate accumulation. It is filed as cell-based.
The target is the same in assay [3]. Nature of the assay: [3H]-mesulergine competition, HEK-293 membranes. It is filed as binding.
Assay [4] addresses T2, h5-HT2A (human 5-HT2A receptor) (Homo sapiens, UniProt P28223). Nature of the assay: [3H]-inositol phosphate accumulation. It is filed as cell-based.
Assay [5] deals with T2, h5-HT2A (human 5-HT2A receptor). Nature of the assay: [3H]-ketanserin competition, HEK-293 membranes. It is filed as binding.
The target in assay [6] is T3, m5-HT2A (C57Bl/6 mouse 5-HT2A receptor) (Mus musculus, UniProt P35363). Description: [3H]-ketanserin competition, HEK-293 membranes. It is filed as binding.
Assay [7] has as its target T3, m5-HT2A (C57Bl/6 mouse 5-HT2A receptor). Nature of the assay: [3H]-inositol phosphate accumulation. It is filed as cell-based.
The target is the same in assay [8]. Description: saturation radioligand binding, HEK-293 membranes.
Assay [9] concerns the target T4, h5-HT2C (human 5-HT2C-INI receptor) (Homo sapiens, UniProt P28335).
T4 sequence (P28335 33-458): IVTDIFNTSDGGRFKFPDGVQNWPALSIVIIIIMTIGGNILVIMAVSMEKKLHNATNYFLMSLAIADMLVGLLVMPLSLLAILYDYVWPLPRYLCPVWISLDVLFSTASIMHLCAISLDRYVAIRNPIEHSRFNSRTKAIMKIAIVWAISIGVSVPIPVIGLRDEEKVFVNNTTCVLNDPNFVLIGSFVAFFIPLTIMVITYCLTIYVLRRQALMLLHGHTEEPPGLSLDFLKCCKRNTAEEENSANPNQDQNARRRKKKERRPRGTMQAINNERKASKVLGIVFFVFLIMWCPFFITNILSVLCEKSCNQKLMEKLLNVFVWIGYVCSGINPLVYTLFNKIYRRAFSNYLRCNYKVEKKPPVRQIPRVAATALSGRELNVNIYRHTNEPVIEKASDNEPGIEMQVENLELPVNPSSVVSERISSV
Description: biochemical. It is filed as binding.

Assay [10] addresses T4, h5-HT2C (human 5-HT2C-INI receptor). Description: [3H]-inositol phosphate accumulation. It is filed as cell-based.

T2 sequence (P28223 whole entry): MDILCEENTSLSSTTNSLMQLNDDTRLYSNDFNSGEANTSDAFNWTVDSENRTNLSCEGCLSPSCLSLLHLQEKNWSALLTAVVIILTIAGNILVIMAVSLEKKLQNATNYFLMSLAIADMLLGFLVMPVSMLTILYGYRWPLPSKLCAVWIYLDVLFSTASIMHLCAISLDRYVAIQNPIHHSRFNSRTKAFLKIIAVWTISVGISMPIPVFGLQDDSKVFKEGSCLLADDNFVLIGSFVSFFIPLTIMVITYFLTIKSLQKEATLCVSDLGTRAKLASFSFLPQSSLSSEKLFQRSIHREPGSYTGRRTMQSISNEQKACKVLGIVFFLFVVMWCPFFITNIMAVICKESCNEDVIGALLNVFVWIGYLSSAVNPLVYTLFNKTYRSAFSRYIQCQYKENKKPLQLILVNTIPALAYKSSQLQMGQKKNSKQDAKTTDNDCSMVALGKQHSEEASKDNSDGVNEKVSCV
T3 sequence (P35363 whole entry): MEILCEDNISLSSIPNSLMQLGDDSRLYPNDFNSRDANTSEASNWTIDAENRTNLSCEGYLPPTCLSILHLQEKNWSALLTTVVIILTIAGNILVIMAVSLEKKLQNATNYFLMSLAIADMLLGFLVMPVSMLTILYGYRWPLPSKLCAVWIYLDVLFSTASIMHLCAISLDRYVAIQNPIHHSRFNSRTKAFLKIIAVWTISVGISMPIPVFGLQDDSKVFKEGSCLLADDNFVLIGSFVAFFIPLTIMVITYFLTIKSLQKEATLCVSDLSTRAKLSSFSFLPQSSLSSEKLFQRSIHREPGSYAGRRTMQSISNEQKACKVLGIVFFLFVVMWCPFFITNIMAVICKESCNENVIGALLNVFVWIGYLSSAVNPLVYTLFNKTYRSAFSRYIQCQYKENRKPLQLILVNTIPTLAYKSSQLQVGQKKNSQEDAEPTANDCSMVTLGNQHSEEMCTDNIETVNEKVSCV

`CN1C[C@@H](NS(=O)(=O)N(C)C)C[C@@H]2c3cccc4c3c(cn4C)C[C@H]21` [[^3H]-mesulergine]: in assay [1], the Kd stood at 0.0022 µM.

Turning to `CN(C)[C@H]1Cc2ccccc2[C@H](c2ccccc2)C1` [(+)-PAT], the EC50 in assay [2] is 2.11 µM; in assay [4], 0.233 µM; in [7], 0.352 µM. Also, the Ki in [3] worked out at 1.73 µM; in assay [5], 0.463 µM; in assay [6], 0.332 µM.

In assay [8], `O=C(c1ccc(F)cc1)C1CCN(CCn2c(=O)[nH]c3ccccc3c2=O)CC1` [[^3H]-ketanserin] came in with a Kd of 0.00092 µM.

Take `Cc1cc2c(cc1Cl)N(C(=O)Nc1ccc(Oc3cccnc3C)nc1)CC2` [SB-242084]: the Ki in assay [3] was 0.0001 µM; in [5], 0.146 µM; in assay [6], 0.096 µM; in [9], 0.0015 µM.

As for `CN(C)[C@@H]1Cc2ccccc2[C@@H](c2ccccc2)C1` [(−)-PAT], the EC50 in assay [2] came out at 0.039 µM. Also, the Ki in assay [3] turned out to be 0.053 µM; in [5], 0.102 µM; in [6], 0.116 µM.

For the molecule `COc1cc(CC(C)N)c(OC)cc1I` (racemic) [(±)-DOI], the EC50 in assay [2] was 0.0034 µM; in [10], 0.0055 µM; in [7], 0.0026 µM. Besides, the inhibition constant (Ki) came out at 0.0467 µM in assay [3], 0.004 µM in assay [6] and 0.0191 µM in assay [9].

In the case of `Cc1ccc([C@H]2C[C@H](N(C)C)Cc3ccccc32)cc1` [Methyl-PAT, (−)-(2S, 4R)-trans-4-(4′-methyl)-N,N-dimethylaminotetralin], the EC50 in assay [2] turned out to be 0.808 µM; in assay [10] it was 1.12 µM. Moreover, the Ki in assay [3] worked out at 0.868 µM; in assay [5] it was 0.179 µM; in assay [6], 0.326 µM; in assay [9] it was 0.128 µM.

As for `Cn1ccc2cc3c(cc21)CCN3C(=O)Nc1cccnc1` [SB-206553], the Ki turned out to be 0.676 µM in [5] and 0.342 µM in assay [6].

A word on the Kd: it is the equilibrium constant for the complex coming apart. Read a low Kd as a tighter complex. As usually defined, the EC50 is the midpoint of the concentration-response curve. The term Ki denotes the equilibrium dissociation constant of an inhibitor or competing ligand from its target.
